Results on 15 compounds are retold here after US4755524A, “Novel phenolic thioethers as inhibitors of 5-lipoxygenase” (G. D. Searle & Co., priority 1987, dated 1988).

Molecules are shown by their SMILES. Counter-ions that a name gives are not always drawn.

As a reminder, the IC50 is the concentration needed to halve the response being measured. A high value points to a need for much substance.

Assay [1] deals with OA-induced bronchoconstriction in the Guinea Pig. Briefly: In vivo inhibition of ovalbumin-induced bronchoconstriction - Anti-allergy assay. From the text: (2) In vivo inhibition of ovalbumin-induced bronchoconstriction-Anti-allergy assay.
Adult, male Hartley guinea pigs (300-350 g, fasted) actively sensitized to ovalbumin are utilized in this assay.
Ovalbumin (OA) causes bronchoconstriction when administered to actively-sensitized guinea pigs. The observed bronchoconstriction is comprised of at least two distinct components:
(a) a cyclooxygenase-dependent, rapidly occurring bronchoconstriction mediated by thromboxane A2 and possibly other mediators and
(b) a 5-lipoxygenase dependent slow developing component, dependent upon the de novo generation of LTC4 and LTD4.
All test animals are pretreated with aspirin and pyrilamine to block the occurrence of the rapidly occurring component (a). Compounds which block the generation of LTC4 and LTD4 (5-lipoxygenase inhibitors) or antagonize the activity of LTC4 /LTD4 (leukotriene inhibitors) modulate the severity of the remaining component of this well-characterized anaphylactic response.
Test compounds are administered at screening doses of 50 mg/kg, i.v., or 100 mg/kg, i.g. A compound is rated active in this test if it causes a significant reduction (i.e., p 0.05, student's t-test) in intratracheal insufflation pressure induced by an i.v. injection of ovalbumin (3 mg/ml, i.v.), aspirin (5 mg/kg, i.v.) and propanolol (6 mg/kg i.p.). Treated animals are statistically compared to concurrent vehicle treated controls. Compounds rated active in inhibiting the production of the LTC4 /LTD4 allergic mediators through inhibition of 5-lipoxygenase according to this test are believed to play a significant role in bronchopulmonary allergic conditions, e.g., asthma.

Another assay addresses T1, 5-lipoxygenase (Rattus norvegicus, UniProt P12527).
T1 construct: supernatant fraction of Rat Basophilic Leukemia Cell Homogenate (RBL-1) serves as a 5-lipoxygenase enzyme source; endogenous in cells; host or cells: RBL-1 (rat basophilic leukemia) cells, 100,000×g supernatant of homogenate
T1 sequence (P12527 1-673): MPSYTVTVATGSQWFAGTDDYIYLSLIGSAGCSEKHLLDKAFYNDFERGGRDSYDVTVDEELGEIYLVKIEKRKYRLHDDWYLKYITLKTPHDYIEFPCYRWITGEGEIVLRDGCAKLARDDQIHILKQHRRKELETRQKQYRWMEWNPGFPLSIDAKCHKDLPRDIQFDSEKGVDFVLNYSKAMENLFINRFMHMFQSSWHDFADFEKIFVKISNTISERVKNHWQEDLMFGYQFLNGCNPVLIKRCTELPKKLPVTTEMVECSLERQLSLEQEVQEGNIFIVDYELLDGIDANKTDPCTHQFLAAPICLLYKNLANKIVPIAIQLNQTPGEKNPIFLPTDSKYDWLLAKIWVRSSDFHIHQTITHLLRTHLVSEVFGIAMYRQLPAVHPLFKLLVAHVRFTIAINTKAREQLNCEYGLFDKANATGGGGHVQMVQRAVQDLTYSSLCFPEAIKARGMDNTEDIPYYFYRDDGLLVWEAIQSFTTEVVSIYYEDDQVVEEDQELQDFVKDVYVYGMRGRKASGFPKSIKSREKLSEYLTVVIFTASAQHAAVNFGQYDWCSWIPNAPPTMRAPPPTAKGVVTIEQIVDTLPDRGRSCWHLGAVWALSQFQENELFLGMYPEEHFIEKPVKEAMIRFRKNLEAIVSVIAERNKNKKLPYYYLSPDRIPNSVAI
As to the kind of experiment: Inhibition of 5-lipoxygenase, in vitro. It is filed as biochemical. To be noted: 100,000×g supernatant of RBL-1 homogenate, 14C-arachidonic acid, 5-HETE measured. As to the method:
The compounds of the invention are evaluated with respect to 5-lipoxygenaseinhibition according to the following assay procedures.
(1) Inhibition of 5-lipoxygenase, in vitro: anti-inflammatory, anti-allergyactivities.
The 100,000×g supernatant fraction of Rat Basophilic Leukemia Cell Homogenate (RBL-1) serves as a 5-lipoxygenase enzyme source. The enzyme is incubated with [(1-^14 C)-arachidonic acid and Ca++ in the presence and absence of test compound. The product of 5-lipoxygenase, 5-hydroxyeicosatetraenoic acid (5-HETE), is separated by thin-layer chromatography and measured by radioactivity. A compound inhibiting 5-HETE synthesis by 30% or more is considered active at that concentration.

The conditions of assay [2]: more potent than histamine; cited from earlier work.
[3] abbreviates: i.g. @ 3 hr., vehicle 2 (peanut oil).
Setting [4] is: i.g. @ 3 hr., vehicle 1 (20% DMSO in polyethylene glycol).

In the case of `CC(C)(C)c1cc(SCCSCC(=O)O)cc(C(C)(C)C)c1O` [Example 3, [[2-[[3,5-bis(1,1-dimethylethyl)-4-hydroxyphenyl]thio]ethyl]thio]acetic acid, monosodium salt], the “Antagonism of OA-induced bronchoconstriction in the Guinea Pig (min. effective dose)” value (from here on “Antagonism”) in assay [1] (i.g. @ 3 hr., vehicle 1 (20% DMSO in polyethylene glycol), monosodium salt) was 100 mg/kg.
For `CC(C)(C)c1cc(SCCSCC(=O)O)cc(C(C)(C)C)c1O` [Example 4, [[2-[[3,5-bis(1,1-dimethylethyl)-4-hydroxyphenyl]thio]ethyl]thio]acetic acid], in assay [1] (setting [3]), the “Antagonism” value was 100 mg/kg. The compound further yielded an IC50 against 5-lipoxygenase of 1400 nM.
Turning to `CC(C)(C)c1cc(SCCSCC(=O)O)cc(C(C)(C)C)c1O` [Example 6, [[2-[[3,5-bis(1,1-dimethylethyl)-4-hydroxyphenyl]thio]ethyl]thio]acetic acid, 2,2',2"nitrilotris[ethanol] salt], in assay [1] (setting [4]), the “Antagonism” value stood at 50 mg/kg. Moreover, the IC50 against 5-lipoxygenase stood at 1800 nM.
In the case of `COC(=O)CSCCSc1cc(C(C)(C)C)c(O)c(C(C)(C)C)c1` [Example 8, methyl[[2-[[3,5-bis(1,1-dimethylethyl)-4-hydroxyphenyl]thio]ethyl]thio]acetate], the “Antagonism” value in assay [1] (setting [4]) worked out at 100 mg/kg.
As for `CCOC(=O)C[S+]([O-])CCSc1cc(C(C)(C)C)c(O)c(C(C)(C)C)c1` (centres unmarked) [Example 12, ethyl[[2-[[3,5-bis(1,1-dimethylethyl)-4-hydroxyphenyl]thio]ethyl]sulfinyl]acetate], inhibition at 5-lipoxygenase was half-maximal at 330 nM (IC50).
Regarding `CC(C)(C)c1cc(SCCSCCC(=O)O)cc(C(C)(C)C)c1O` [Example 13, 3-[[2-[[3,5-bis(1,1-dimethylethyl)-4-hydroxyphenyl]thio]ethyl]thio]propanoic acid], the “Antagonism” value in assay [1] (i.g. @ 5 hr., vehicle 2 (peanut oil)) was found to be 100 mg/kg. On 5-lipoxygenase, this compound yielded an IC50 of 1000 nM.
Compound `COC(=O)CCCSCCSc1cc(C(C)(C)C)c(O)c(C(C)(C)C)c1` [Example 15, methyl 4-[[2-[[3,5-bis(1,1-dimethylethyl)-4-hydroxyphenyl]thio]ethyl]thio]butanoate] returned an IC50 against 5-lipoxygenase of 120 nM.
On 5-lipoxygenase, `CCOC(=O)CS(=O)(=O)CCSc1cc(C(C)(C)C)c(O)c(C(C)(C)C)c1` [Example 17, ethyl[[2-[[3,5-bis(1,1-dimethylethyl)-4-hydroxyphenyl]thio]ethyl]sulfonyl]acetate] came in with an IC50 of 300 nM.
As to `COC(=O)CSC(C)C(C)Sc1cc(C(C)(C)C)c(O)c(C(C)(C)C)c1` (centres unmarked) [Example 19, methyl[[2-[[3,5-bis(1,1-dimethylethyl)-4-hydroxyphenyl]thio]-1-methylpropyl]thio]acetate], the “Antagonism” value in assay [1] (setting [3]) is reported as 32 mg/kg. The same compound had an IC50 on 5-lipoxygenase of 240 nM.
Turning to `CC(SCC(=O)O)C(C)Sc1cc(C(C)(C)C)c(O)c(C(C)(C)C)c1` (centres unmarked) [Example 20, [[2-[[3,5-bis(1,1-dimethylethyl)-4-hydroxyphenyl]thio]-1-methylpropyl]thio]acetic acid], the “Antagonism” value in assay [1] (setting [3]) is given as 32 mg/kg. For the same compound, inhibition against 5-lipoxygenase was half-maximal at 820 nM (IC50).
The compound `CC(C)(C)c1cc(SCCOCC(=O)O)cc(C(C)(C)C)c1O` [Example 31, [2-[[3,5-bis(1,1-dimethylethyl)-4-hydroxyphenyl]thio]ethoxy]acetic acid] displayed an IC50 on 5-lipoxygenase of 7300 nM.
Regarding `Cc1cc(SCCSCC(=O)O)ccc1O` [Example 34, [[2-[(4-hydroxy-3-methylphenyl)thio]ethyl]thio]acetic acid, reference compound], in assay [1] (setting [3]), the “Antagonism” value was found to be 100 mg/kg. The same compound came in with an IC50 at 5-lipoxygenase of around 100000 nM.
The matching figures for `O=C(O)CSCCSc1ccc(O)cc1` [Example 37, [[2-[(4-hydroxyphenyl)thio]ethyl]thio]acetic acid, reference compound]: 100 mg/kg and 55000 nM.
In the case of `COC(=O)CSCC(O)CSc1cc(C(C)(C)C)c(O)c(C(C)(C)C)c1` (centres unmarked) [Example 42, methyl[[3-[[3,5-bis(1,1-dimethylethyl)-4-hydroxyphenyl]thio]-2-hydroxypropyl]thio]acetate], the “Antagonism” value in assay [1] (i.g. @ 2 hr., vehicle 1 (20% DMSO in polyethylene glycol)) is listed as 50 mg/kg. At 5-lipoxygenase, the IC50 is 310 nM.
Turning to `CCCCC/C=C\C\C=C/C=C/C=C/[C@@H](SC[C@H](NC(=O)CC[C@H](N)C(=O)O)C(=O)NCC(=O)O)[C@@H](O)CCCC(=O)O` [LTC4], the “potency relative to histamine in causing long lasting bronchoconstricting effects” value in assay [2] is “at least 100 times”.
